Experimental findings from patent US8575200B2, “Pyridin-2-yl derivatives as immunomodulating agents” (Actelion Pharmaceuticals Ltd, priority 2008, dated 2013) are described below.

Marks after values point to notes of the source that are not given here.

recombinant human S1P1 receptor, sequence (P21453 whole entry): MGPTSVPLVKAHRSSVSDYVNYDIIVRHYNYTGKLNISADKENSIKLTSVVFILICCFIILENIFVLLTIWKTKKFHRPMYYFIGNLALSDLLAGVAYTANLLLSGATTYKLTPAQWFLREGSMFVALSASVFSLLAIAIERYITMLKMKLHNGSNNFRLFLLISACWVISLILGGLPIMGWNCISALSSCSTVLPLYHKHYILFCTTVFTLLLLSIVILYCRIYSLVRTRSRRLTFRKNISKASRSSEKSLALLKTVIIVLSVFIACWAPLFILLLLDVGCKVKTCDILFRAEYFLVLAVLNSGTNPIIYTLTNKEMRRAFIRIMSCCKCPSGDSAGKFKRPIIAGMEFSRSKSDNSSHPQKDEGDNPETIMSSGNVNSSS

One assay deals with recombinant human S1P1 receptor (Homo sapiens, UniProt P21453). Put plainly: GTPγS assay to determine EC50 values. The following applies: 35S-GTPγS binding, membrane preparations of CHO cells expressing recombinant human S1P1 receptor, agonistic activity. In kind it is biochemical. The procedure:
GTPγS binding assays are performed in 96 well microtiter plates (Nunc, 442587) in a final volume of 200 μl, using membrane preparations of CHO cells expressing recombinant human S1P1 receptor. Assay conditions are 20 mM Hepes (Fluka, 54461), 100 mM NaCl (Fluka, 71378), 5 mM MgCl2 (Fluka, 63064), 0.1% BSA (Calbiochem, 126609), 1 μM GDP (Sigma, G-7127), 2.5% DMSO (Fluka, 41644), […] ^35S-GTPγS (Amersham Biosciences, SJ1320). The pH is 7.4. Test compounds are dissolved and diluted in 100% DMSO and pre-incubated at room temperature for 30 min in 150 μl of the above assay buffer, in the absence of ^35S-GTPγS. After addition of 50 μl of ^35S-GTPγS, the assay is incubated for 1 h at rt. The assay is terminated by transfer of the reaction mixture to a Multiscreen plate (Millipore, MAHFC1H60) using a cell harvester from Packard Biosciences, and the plates are washed with ice-cold 10 mM Na2HPO4/NaH2PO4 (70%/30%), dried, sealed at the bottom and, after addition of 25 μl MicroScint20 (Packard Biosciences, order #6013621), sealed on the top. Membrane-bound ^35S-GTPγS is measured with a TopCount from Packard Biosciences.
EC50 is the concentration of agonist inducing 50% of the maximal specific ^35S-GTPγS binding. Specific binding is determined by subtracting non-specific binding from maximal binding. Maximal binding is the amount of cpm bound to the Multiscreen plate in the presence of 10 μM of S1P. Non-specific binding is the amount of binding in the absence of an agonist in the assay.
(In general: Binding of GTPγS marks nucleotide exchange on a G protein.)
`COc1cc(CC(C)C)nc(-c2nc(-c3cc(C)c(OC[C@@H](O)CNC(=O)CO)c(C)c3)no2)c1` [Example 10]: the EC50 (commonly the concentration at which the effect is half-maximal) is 2.7 nM.
Take `CCc1cc(-c2noc(-c3cc(OC)cc(CC(C)C)n3)n2)cc(C)c1OC[C@@H](O)CNC(=O)CO` [Example 17, N—((S)-3-{2-ethyl-4-[5-(6-isobutyl-4-methoxy-pyridin-2-yl)-[1,2,4]oxadiazol-3-yl]-6-methyl-phenoxy}-2-hydroxy-propyl)-2-hydroxy-acetamide]: the EC50 is 2.3 nM.
For the molecule `CCc1cc(-c2noc(-c3cc(C)c(CC(C)C)cn3)n2)cc(C)c1OC[C@H](O)CO` [Example 33, (R)-3-{2-ethyl-4-[5-(5-isobutyl-4-methyl-pyridin-2-yl)-[1,2,4]oxadiazol-3-yl]-6-methyl-phenoxy}-propane-1,2-diol], the EC50 amounted to 7.2 nM.
`CCc1cc(-c2noc(-c3cc(C)c(CC(C)C)cn3)n2)cc(C)c1OC[C@@H](O)CO` [Example 34, (S)-3-{2-ethyl-4-[5-(5-isobutyl-4-methyl-pyridin-2-yl)-[1,2,4]oxadiazol-3-yl]-6-methyl-phenoxy}-propane-1,2-diol]: the EC50 came out at 9.1 nM.
For `CCc1cc(-c2noc(-c3cc(C)c(CC(C)C)cn3)n2)cc(C)c1CCC(=O)NCCC(=O)O` [Example 40, 3-(3-{2-Ethyl-4-[5-(5-isobutyl-4-methyl-pyridin-2-yl)-[1,2,4]oxadiazol-3-yl]-6-methyl-phenyl}-propionylamino)-propionic acid], the EC50 came out at 3.3 nM.
As to `CCc1cc(-c2noc(-c3cc(C)c(CC(C)C)cn3)n2)cc(C)c1OCCNCCC(=O)O` [Example 50, 3-(2-{2-Ethyl-4-[5-(5-isobutyl-4-methyl-pyridin-2-yl)-[1,2,4]oxadiazol-3-yl]-6-methyl-phenoxy}-ethylamino)-propionic acid], the EC50 was 5.1 nM.
Same read-out and setting: with `CCc1cc(-c2noc(-c3cc(C)c(CC(C)C)cn3)n2)cc(C)c1OCCNC(=O)CO` [Example 51, N-(2-{2-Ethyl-4-[5-(5-isobutyl-4-methyl-pyridin-2-yl)-[1,2,4]oxadiazol-3-yl]-6-methyl-phenoxy}-ethyl)-2-hydroxy-acetamide] the figure was 8.8 nM; with `CCc1cc(-c2noc(-c3cc(C)c(CC(C)C)cn3)n2)cc(C)c1OC(CO)CO` [Example 55, 2-{2-Ethyl-4-[5-(5-isobutyl-4-methyl-pyridin-2-yl)-[1,2,4]oxadiazol-3-yl]-6-methyl-phenoxy}-propane-1,3-diol], 4.7 nM; with `CCc1cc(-c2noc(-c3cc(C)c(CC(C)C)cn3)n2)cc(C)c1OC[C@@H](O)CNCCO` [Example 58, 1-{2-Ethyl-4-[5-(5-isobutyl-4-methyl-pyridin-2-yl)-[1,2,4]oxadiazol-3-yl]-6-methyl-phenoxy}-3-((2S)-2-hydroxy-ethylamino)-propan-2-ol], 11.2 nM.
Same read-out and setting: with `CCc1cc(-c2noc(-c3cc(C)c(CC(C)C)cn3)n2)cc(C)c1OC[C@@H](O)CNS(=O)(=O)CC` [Example 59, Ethanesulfonic acid ((2S)-3-{2-ethyl-4-[5-(5-isobutyl-4-methyl-pyridin-2-yl)-[1,2,4]oxadiazol-3-yl]-6-methyl-phenoxy}-2-hydroxy-propyl)-amide] the figure was 11.9 nM.
On the same count and under the same terms, with `CCc1cc(-c2noc(-c3cc(C)c(CC(C)C)cn3)n2)cc(C)c1OC[C@@H](O)CNCCC(=O)O` [Example 61, 3-((2S)-3-{2-Ethyl-4-[5-(5-isobutyl-4-methyl-pyridin-2-yl)-[1,2,4]oxadiazol-3-yl]-6-methyl-phenoxy}-2-hydroxy-propylamino)-propionic acid] the figure was 2.3 nM; with `CCc1cc(-c2noc(-c3cc(C)cc(C(CC)CC)n3)n2)cc(C)c1OC[C@@H](O)CO` [Example 62, (S)-3-(2-Ethyl-4-{5-[6-(1-ethyl-propyl)-4-methyl-pyridin-2-yl]-[1,2,4]oxadiazol-3-yl}-6-methyl-phenoxy)-propane-1,2-diol], 2.2 nM.
Regarding `CCC(CC)c1cc(OC)cc(-c2nc(-c3cc(C)c(OC[C@@H](O)CO)c(Cl)c3)no2)n1` [Example 65, (S)-3-(2-chloro-4-{5-[6-(1-ethyl-propyl)-4-methoxy-pyridin-2-yl]-[1,2,4]oxadiazol-3-yl}-6-methyl-phenoxy)-propane-1,2-diol], the EC50 turned out to be 9.4 nM.
Consider `CCc1cc(-c2noc(-c3cc(OC)cc(C(CC)CC)n3)n2)cc(C)c1OC[C@@H](O)CNC(=O)CO` [Example 69, N—[(S)-3-(2-ethyl-4-{5-[6-(1-ethyl-propyl)-4-methoxy-pyridin-2-yl]-[1,2,4]oxadiazol-3-yl}-6-methyl-phenoxy)-2-hydroxy-propyl]-2-hydroxy-acetamide], for which the EC50 is 3.1 nM.
Turning to `CCC(CC)c1cc(OC)cc(-c2nc(-c3cc(C)c(OC[C@@H](O)CNC(=O)CO)c(C)c3)no2)n1` [Example 70, N—[(S)-3-(4-{5-[6-(1-ethyl-propyl)-4-methoxy-pyridin-2-yl]-[1,2,4]oxadiazol-3-yl}-2,6-dimethyl-phenoxy)-2-hydroxy-propyl]-2-hydroxy-acetamide], the EC50 came out at 2.8 nM.
Turning to `CCC(CC)c1cc(OC)cc(-c2nc(-c3cc(C)c(OC[C@@H](O)CNC(=O)CO)c(Cl)c3)no2)n1` [Example 71, N—[(S)-3-(2-chloro-4-{5-[6-(1-ethyl-propyl)-4-methoxy-pyridin-2-yl]-[1,2,4]oxadiazol-3-yl}-6-methyl-phenoxy)-2-hydroxy-propyl]-2-hydroxy-acetamide], the EC50 was found to be 0.8 nM.
In the case of `CCC(CC)c1cc(OC)cc(-c2nc(-c3cc(C)c(OC[C@@H](O)CNC(=O)CO)c(OC)c3)no2)n1` [Example 72, N—[(S)-3-(4-{5-[6-(1-ethyl-propyl)-4-methoxy-pyridin-2-yl]-[1,2,4]oxadiazol-3-yl}-2-methoxy-6-methyl-phenoxy)-2-hydroxy-propyl]-2-hydroxy-acetamide], the EC50 is 8.8 nM.
On the same count and under the same terms, the same measure for `CCc1cc(-c2nc(-c3cc(C)c(CC(C)C)cn3)no2)cc(C)c1OC[C@@H](O)CNC(=O)CO` [Example 74, N-((2S)-3-{2-Ethyl-4-[3-(5-isobutyl-4-methyl-pyridin-2-yl)-[1,2,4]oxadiazol-5-yl]-6-methyl-phenoxy}-2-hydroxy-propyl)-2-hydroxy-acetamide]: 9 nM.

Still in this assay, the particulars now being: 35S-GTPγS binding, membranes of CHO cells expressing recombinant human S1P1 receptor.
`CCc1cc(-c2nnc(-c3cc(C)c(CC(C)C)cn3)o2)cc(C)c1OC[C@@H](O)CN` [Example 43]: the EC50 is more than 10000 nM.

A further assay concerns circulating lymphocytes. Put plainly: Assessment of in vivo efficacy: circulating lymphocytes after oral administration. Details: species or system normotensive male Wistar rats. The following applies: 3 h after administration; oral 10 mg/kg, male Wistar rats, compared to vehicle group. The procedure: The efficacy of the compounds of Formula (I) is assessed by measuring the circulating lymphocytes after oral administration of 3 to 30 mg/kg of a compound of Formula (I) to normotensive male Wistar rats. The animals are housed in climate-controlled conditions with a 12 h-light/dark cycle, and have free access to normal rat chow and drinking water. Blood is collected before and 3, 6 and 24 h after drug administration. Full blood is subjected to hematology using Advia Hematology system (Bayer Diagnostics, Zürich, Switzerland).
All data are presented as mean±SEM. Statistical analyses are performed by analysis of variance (ANOVA) using Statistica (StatSoft) and the Student-Newman-Keuls procedure for multiple comparisons. The null hypothesis is rejected when p<0.05.
Lymphocyte counts 6 h after oral administration have been measured for 7 of the exemplified compounds (Table 2) and are in the range of −35% to −74% with an average of −64%.
`CCc1cc(-c2noc(-c3cc(C)c(CC(C)C)cn3)n2)cc(C)c1OC(CO)CO` [Example 55, 2-{2-Ethyl-4-[5-(5-isobutyl-4-methyl-pyridin-2-yl)-[1,2,4]oxadiazol-3-yl]-6-methyl-phenoxy}-propane-1,3-diol]: the Lymphocyte counts is −65%*.

The same assay, now with this note: 6 h after oral administration of 10 mg/kg to male Wistar rats, compared to vehicle group.
On to `CCc1cc(-c2noc(-c3cc(C)cc(CC(C)C)n3)n2)cc(C)c1OC[C@@H](O)CNC(=O)CO` [Example 1, N—((S)-3-{2-Ethyl-4-[5-(6-isobutyl-4-methyl-pyridin-2-yl)-[1,2,4]oxadiazol-3-yl]-6-methyl-phenoxy}-2-hydroxy-propyl)-2-hydroxy-acetamide], for which the Lymphocyte counts is reported as −74%.
As for `CCc1cc(-c2noc(-c3cc(CC(C)C)cc(C)n3)n2)cc(C)c1OC[C@@H](O)CNC(=O)CO` [Example 5, N—((S)-3-{2-Ethyl-4-[5-(4-isobutyl-6-methyl-pyridin-2-yl)-[1,2,4]oxadiazol-3-yl]-6-methyl-phenoxy}-2-hydroxy-propyl)-2-hydroxy-acetamide], the Lymphocyte counts is listed as −67%.
Same read-out and setting: with `CCc1cc(-c2noc(-c3cc(OC)cc(CC(C)C)n3)n2)cc(C)c1OC[C@@H](O)CNC(=O)CO` [Example 17, N—((S)-3-{2-ethyl-4-[5-(6-isobutyl-4-methoxy-pyridin-2-yl)-[1,2,4]oxadiazol-3-yl]-6-methyl-phenoxy}-2-hydroxy-propyl)-2-hydroxy-acetamide] the figure was −66%.
Take `CCc1cc(-c2noc(-c3cc(C)c(CC(C)C)cn3)n2)cc(C)c1OC[C@@H](O)CO` [Example 34, (S)-3-{2-ethyl-4-[5-(5-isobutyl-4-methyl-pyridin-2-yl)-[1,2,4]oxadiazol-3-yl]-6-methyl-phenoxy}-propane-1,2-diol]: the Lymphocyte counts is reported as −70%.
With `CCc1cc(-c2noc(-c3cc(C)c(CC(C)C)cn3)n2)cc(C)c1OC[C@@H](O)CNC(=O)CO` [Example 36, N—((S)-3-{2-ethyl-4-[5-(5-isobutyl-4-methyl-pyridin-2-yl)-[1,2,4]oxadiazol-3-yl]-6-methyl-phenoxy}-2-hydroxy-propyl)-2-hydroxy-acetamide], the Lymphocyte counts was −74%.
In the case of `CCc1cc(-c2noc(-c3cc(C)c(CC(C)C)cn3)n2)cc(C)c1CCC(=O)NCCC(=O)O` [Example 40, 3-(3-{2-Ethyl-4-[5-(5-isobutyl-4-methyl-pyridin-2-yl)-[1,2,4]oxadiazol-3-yl]-6-methyl-phenyl}-propionylamino)-propionic acid], the Lymphocyte counts is reported as −35%.
